Publication PMC9890180, “Structural diversity-guided optimization of carbazole derivatives as potential cytotoxic agents” (Frontiers in Chemistry, 2023)
Read-outs that look alike come from different tables or passages of the source.

Columns and labels:
[1] = In vitro cytotoxicity MTT assay, MARC145 cells; details: African green monkey, MARC145 cells (subclone of kidney cell line MA-104)
Procedure: (§1) The in vitro cytotoxicity of these carbazole derivatives against human melanoma (A875), human gastric adenocarcinoma cells (7901), and a subclone of African green monkey kidney cell line MA-104 (MARC145) cell lines was evaluated using the MTT assay. Briefly, A875, 7901, and MARC145 cells were seeded at 2 × 10^4 cells per well in 96-well plates and grown to subconfluence. After removal of the growth medium, six serial dilutions of each tested compound in 200 µL test medium were added. Plates were incubated at 37°C in a humidified atmosphere containing 5% CO2. After 72 h of exposure, the culture medium was removed and 30 µL of the MTT solution (5 mg/mL in PBS) was added to each well. The plate was further incubated for 4 h to allow MTT formazan formation. To dissolve the resulting MTT formazan, 50 µL of DMSO was added to each well, followed by thorough mixing with a microplate shaker. Absorbance at 570 nm was measured on a microplate reader (Thermo Scientific, MK3). All data were analyzed with SPSS software, and the 50% inhibitory concentrations (IC50) of each compound for the different cell lines were determined. All assays were performed in triplicate on three independent experiments.

A875 (human melanoma) [2] = test: In vitro cytotoxicity MTT assay, A875 cells; details: for IC50 / inhibition at 40 µg/mL: Homo sapiens; for inhibition at 40 µg/mL: A875, read-out: in vitro inhibition rate on A875
Procedure: as §1

[3] = tested on: MARC145 (a subclone of African green monkey kidney cell line MA-104); set-up: method as in Huang et al., 2021; details: previous work; ref Huang et al., 2021; cited from earlier work
A875 (human melanoma) [4] = tested on: A875 (human melanoma); set-up: method as in Huang et al., 2021; details: previous work; ref Huang et al., 2021; read-out: IC50 against A875; cited from earlier work
[5] = tested on: 7901 (human gastric adenocarcinoma cells); test: In vitro cytotoxicity MTT assay, 7901 cells; details: for IC50 / inhibition at 40 µg/mL: Homo sapiens; for inhibition at 40 µg/mL: read-out: in vitro inhibition rate on 7901
Procedure: as §1

[6] = tested on: 7901, A875 and MARC145 cell lines; test: In vitro cytotoxicity MTT assay, overall rating over the tested cell lines; type: cell-based
Procedure: The relationship between concentration and inhibition rate is the key to whether a potential compound can be use as potential medicinal agents. It is very important to maintain good activity at low concentration. Based on the preliminary screening data, in order to verify the effect of concentration on the potential cytotoxic activities for all compounds, the inhibition activity data of the compounds at different concentrations were detected using the same method. All experiments were carried out on three kinds of cell lines with six concentrations of 40, 20, 10, 5, 1, and 0.5 μg/mL. The inhibition activities for highly potential compounds 7b, 11a, 11b, 14a, and 14b were described in Figure 4.

[7] = tested on: MARC145 (a subclone of African green monkey kidney cell line MA-104); test: In vitro cytotoxicity MTT assay, MARC145 cells; details: preliminary screening, 40 μg/mL
Procedure: as §1

A875 (human melanoma) [8] = tested on: A875 (human melanoma)
Procedure: as §1

[9] = tested on: MARC145 (a subclone of African green monkey kidney cell line MA-104)
Procedure: as §1

[10] = tested on: 7901 (human gastric adenocarcinoma cells)
Procedure: as §1

[11] = A875, 72 h, read-out: In vitro cytotoxicity IC50, A875
[12] = 72 h, read-out: In vitro cytotoxicity IC50, 7901
[13] = A875, read-out: A875 IC50 (Figure 5)

Row | Molecule | melting point | IC50 at 72 h [1] | IC50 (A875 (human melanoma) [2]; [11]) | IC50 [5, 12] | Inhibitory activity on tested cells, in words [6] | other results
1 | CC(C(=O)NN=Cc1c[nH]c2ccccc12)c1ccc2c(c1)[nH]c1ccc(Cl)cc12 (stereo not drawn) [Compound 14d, N'-((1H-Indol-3-yl)methylene)-2-(6-chloro-9H-carbazol-2-yl)propanehydrazide] | 209 °C | 42.4 ± 4.58 µM | 37.6 ± 8.15 µM |  |  | 
2 | COc1cccc(/C=N/NC(=O)c2ccc3c([nH]c4ccccc43)c2C)c1O [Compound 2021-7e] |  |  |  |  |  | IC50 [3]: 26.6 µM; IC50 (A875 (human melanoma) [4]): 4.15 µM
3 | Cc1c(C(=O)Nc2ccc(S(=O)(=O)Nc3ccccc3Oc3ccccc3)cc2)ccc2c1[nH]c1ccccc12 [Compound 7a, 1-Methyl-N-(4-(N-(2-phenoxyphenyl)sulfamoyl)phenyl)-9H-carbazole-2-carboxamide] | 78 °C | 51.5 ± 9.24 µM | 33.5 ± 1.63 µM | 64.7 ± 15.1 µM |  | 
4 | CC(C(=O)NN=Cc1ccc2c(c1)OCO2)c1ccc2c(c1)[nH]c1ccc(Cl)cc12 (stereo not drawn) [Compound 14c, N'-(Benzo[d][1,3]dioxol-5-ylmethylene)-2-(6-chloro-9H-carbazol-2-yl)propanehydrazide] | 240 °C | > 40 µM | > 40 µM |  |  | 
5 | Cc1c(C(=O)Nc2ccc(S(=O)(=O)Nc3ccc(Cl)nc3)cc2)ccc2c1[nH]c1ccccc12 [Compound 7b, N-(4-(N-(6-Chloropyridin-3-yl)sulfamoyl)phenyl)-1-methyl-9H-carbazole-2-carboxamide] | 93 °C | 58.9 ± 16.7 µM | 23 ± 16.9 µM | 58.1 ± 11.3 µM | moderate inhibitory activity | Toxicity to normal cells MARC-145 compared with cancer cells, in words [7]: less toxicity to normal cells MARC-145 than cancer cells; inhibition at 40 µg/mL (A875 (human melanoma) [2]): > 70%; inhibition at 40 µg/mL [5]: > 70%
6 | CC(C(=O)NCCS(C)(=O)=O)c1ccc2c(c1)[nH]c1ccc(Cl)cc12 (stereo not drawn) [Compound 11d, 2-(6-Chloro-9H-carbazol-2-yl)-N-(2-(methylsulfonyl)ethyl)propanamide] | 149 °C | > 40 µM | > 40 µM |  | lost activity | 
7 | CC(C(=O)Nc1ccc(S(=O)(=O)Nc2ncccn2)cc1)c1ccc2c(c1)[nH]c1ccc(Cl)cc12 (stereo not drawn) [Compound 11e, 2-(6-Chloro-9H-carbazol-2-yl)-N-(4-(N-(pyrimidin-2-yl)sulfamoyl)phenyl)propanamide] | 157 °C | > 40 µM | > 40 µM |  |  | 
8 | Cc1ccc(NNC(=O)C(C)c2ccc3c(c2)[nH]c2ccc(Cl)cc23)cc1 (stereo not drawn) [Compound 11c, 2-(6-Chloro-9H-carbazol-2-yl)-N'-(p-tolyl)propanehydrazide] | 188 °C | 64 ± 20.1 µM | > 40 µM |  |  | 
9 | 2-(6-Chloro-9H-carbazol-2-yl)-N-(2-((dimethylphosphoryl)amino)phenyl)propanamide [Compound 11b] |  |  |  |  | good inhibition activities on all tested cells | IC50 (A875 (human melanoma) [8]): 33.6 ± 9.48 µM; in vitro inhibition rate on A875 (A875 (human melanoma) [2]; concentration of 40 μg/mL): > 70%; in vitro inhibition rate on 7901 ([5]; concentration of 40 μg/mL): > 70%; IC50 [9]: 17.3 ± 7.25 µM; IC50 [10]: 20.6 ± 3.3 µM
10 | O=c1[nH]cc(F)c(=O)[nH]1 [Compound 5-FU, 5-fluorouracil, reference compound] |  | 86.3 ± 8.3 µM | 80.1 ± 6.61 µM | 63.5 ± 4.92 µM |  | 
11 | Cc1c(C(=O)NN(C(=O)c2ccccc2)C(C)(C)C)ccc2c1[nH]c1ccccc12 [Compound 7c, N'-Benzoyl-N'-(tert-butyl)-1-methyl-9H-carbazole-2-carbohydrazide] | 212 °C | 58.4 ± 31.6 µM | > 40 µM |  |  | 
12 | Cc1c(C(=O)NCC(=O)c2ccccc2)ccc2c1[nH]c1ccccc12 [Compound 7e, 1-Methyl-N-(2-oxo-2-phenylethyl)-9H-carbazole-2-carboxamide] | 153 °C | 62.6 ± 28.2 µM | > 40 µM |  |  | 
13 | COc1cc(C=NNC(=O)C(C)c2ccc3c(c2)[nH]c2ccc(Cl)cc23)ccc1O (stereo not drawn) [Compound 14e, 2-(6-Chloro-9H-carbazol-2-yl)-N'-(4-hydroxy-3-methoxybenzylidene)propanehydrazide] | 239 °C | > 40 µM | > 40 µM |  | almost lost its activity | IC50 (A875 (human melanoma) [2]; [13]): > 100 µM; IC50 ([5]; read-out: 7901 IC50 (Figure 5)): > 100 µM
14 | CC(C(=O)NN=CC=Cc1ccc(Cl)cc1)c1ccc2c(c1)[nH]c1ccc(Cl)cc12 (stereo not drawn) [Compound 14b, 2-(6-Chloro-9H-carbazol-2-yl)-N'-(3-(4-chlorophenyl)allylidene)propanehydrazide] | 186 °C | 19.6 ± 6.94 µM | 45.6 ± 30.6 µM | 18.9 ± 2.64 µM | good inhibition activities on all tested cells | inhibition at 40 µg/mL (A875 (human melanoma) [2]): > 70%; inhibition at 40 µg/mL [5]: > 70%
15 | COc1cccc(C=NNC(=O)C(C)c2ccc3c(c2)[nH]c2ccc(Cl)cc23)c1O (stereo not drawn) [Compound 14a, 2-(6-Chloro-9H-carbazol-2-yl)-N'-(2-hydroxy-3-methoxybenzylidene)propanehydrazide] | 217 °C | 7.47 ± 4.15 µM | 9.77 ± 8.32 µM | 11.8 ± 1.26 µM | good inhibition activities on all tested cells | Inhibition activity at low concentration, in words ([6]; concentration of 5 μg/mL): good activity; Toxicity to normal cells MARC-145 compared with cancer cells, in words [7]: less toxicity to normal cells MARC-145 than cancer cells; IC50 (A875 (human melanoma) [2]; [13]): 9.77 ± 8.33 µM; inhibition at 40 µg/mL (A875 (human melanoma) [2]): > 70%; inhibition at 40 µg/mL [5]: > 70%
16 | Cc1ccc(S(=O)(=O)N(NC(=O)c2ccc3c([nH]c4ccccc43)c2C)C(C)(C)C)cc1 [Compound 7d, N-(tert-Butyl)-4-methyl-N'-(1-methyl-9H-carbazole-2-carbonyl)benzenesulfonohydrazide] | 97 °C | 18.7 ± 4.16 µM | > 40 µM | 34.5 ± 9.9 µM | decreases significantly | 
17 | CC(C(=O)NN=Cc1ccc(Cl)cc1Cl)c1ccc2c(c1)[nH]c1ccc(Cl)cc12 (stereo not drawn) [Compound 14g, 2-(6-Chloro-9H-carbazol-2-yl)-N'-(2,4-dichlorobenzylidene)propanehydrazide] | 241 °C | 96.3 ± 63.3 µM | > 40 µM | 38.8 ± 2.74 µM |  | 
18 | CC(C(=O)NN=Cc1ccc(Cl)cc1)c1ccc2c(c1)[nH]c1ccc(Cl)cc12 (stereo not drawn) [Compound 14f, 2-(6-Chloro-9H-carbazol-2-yl)-N'-(4-chlorobenzylidene)propanehydrazide] | 218 °C | > 40 µM | > 40 µM |  |  | IC50 (A875 (human melanoma) [2]; [13]): > 100 µM; IC50 ([5]; read-out: 7901 IC50 (Figure 5)): > 100 µM
19 | CC(C(=O)Nc1ccccc1NS(C)(=O)=O)c1ccc2c(c1)[nH]c1ccc(Cl)cc12 (stereo not drawn) [Compound 11a, 2-(6-Chloro-9H-carbazol-2-yl)-N-(2-(methylsulfonamido)phenyl)propanamide] | 163 °C | 22.9 ± 14.3 µM | 36.7 ± 2.96 µM | 21.9 ± 3.05 µM | good inhibition activities on all tested cells | Toxicity to normal cells MARC-145 compared with cancer cells, in words [7]: less toxicity to normal cells MARC-145 than cancer cells; inhibition at 40 µg/mL (A875 (human melanoma) [2]): > 70%; inhibition at 40 µg/mL [5]: > 70%
